Data set [1] can be described thus: refractive index (Na D-line) (dimensionless). The following applies: 298.15 K; 101.33 kPa; Liquid; Standard Abbe refractometry.
The conditions of data set [2]: 298.15 K; 101.33 kPa; Liquid; Vibrating tube method.

Refractive index and mass density data for 3 compounds are collected here from the NIST ThermoML archive (doi:10.1021/je100940w).

Each structure is given as a SMILES string. ± gives the expanded uncertainty stated by the source.

As for `CC(=O)CC(C)C` [4-methylpentan-2-one], the refractive index (in general, a measure of how strongly the sample bends light) in data set [1] worked out at 1.3936 ± 0.0005. In addition, the mass density (commonly mass per unit of volume) in data set [2] is 795.94 ± 0.14 kg/m3.
For `CCC(C)O` (stereo not given) [butan-2-ol], in that order: 1.3949 ± 0.0005 and 802.35 ± 0.24 kg/m3.
Consider `O` [water], for which the refractive index in data set [1] came out at 1.3332 ± 0.0005.
